This note sets out measurements from patent EP0309566B1, “STLV-III-RELATED POLYPEPTIDES, DIAGNOSTIC SYSTEMS AND ASSAY METHODS” (JOHNSON AND JOHNSON, priority 1987, dated 1994).

Test [1] concerns antibodies against HIV-2. Put plainly: ELISA with STLV-III polypeptides p80 and p81, alone and in combination. Format: binding, human. The note with it: two sera containing high titers of antibodies against HIV-2, diluted 1:10; 490nm. On the procedure:
Preliminary studies using two sera containing high titers of antibodies against HIV-2 were performed by ELISA using each of p80 and p81 alone and in combination. One hundred microliters (ul) of 0.01M NaHCO₃, pH 9.6, containing 1 microgram (ug) of either p80 or p81 or a combination (admixture) of 1 ug of p80 and 1 ug of p81 were admixed into the wells of Immunolon II microtiter plates (Dynatech, Alexandria, VA). The plates were then maintained for about 16 hours at 4 degrees C to permit the polypeptides to adsorb onto (coat) the walls of the wells. After removing the polypeptide coating solution by shaking, 300 ul of PBS containing 1% bovine serum albumin (BSA), 5mM benzamidine, 10 kilounits Aprotinin, 10ug/ml Trypsin Inhibitor, 10mM EACA, 0.5mM PMSF, 2mM EDTA and 10% glycerol were admixed into each well to block excess protein binding sites. […]
Two hundred ul of OPD substrate were then admixed into each well to form a developing-reaction admixture. After maintaining the developing-reaction admixture for 30 minutes at about 20 degrees C, 50 ul of 4N H₂SO₄ were admixed into each well to stop the developing-reaction, and the resulting solutions were assayed for absorbance at 490nm using a microtiter plate reader.

Test [2] concerns 24 sera. Put plainly: Comparison of peptide p80 based and peptide p81 based ELISA, 24 sera. Format: binding. From the text:
The absorbance values obtained for each of 24 sera in a peptide p80 based ELISA were divided by those obtained in a peptide p81 based ELISA. The resulting absorbance value ratios are shown in ranked order in Table 14.
A general note: An ELISA detects its analyte on a solid surface through an enzyme-linked reagent.

Test [3] deals with antibodies to HIV-1. Kind of test: Competition ELISA, formula (I) peptide as solid phase antigen (Example 4A). Format: binding, human. On the procedure:
(§1) • (1) coat ELISA plate with peptide - 1ug/50ul/well in 0.1M NaHCO₃, pH 9; • (2) let plates dry overnight uncovered at 37°C; then wash with PBS; • (3) block plates with 300ul/well of blocking buffer (5% NCS-PBS) for 2 hrs. at 37°C; • (4) shake out blocking buffer and drain well; • (5) add 50ul/well test antiserum (first antibody) for 30 to 120 minutes at 37°C. (If the antiserum is to be diluted, use T-wash.) Dilutions of 1:2 to 1:100 have been used; • (6) shake out test antisera and wash plate six times with PBS-Tween20; • (7) add 100ul/well of labeled specific binding agent in the form of a enzyme-labeled second antibody diluted 1:4000 with T-wash. Maintain 30 to 120 minutes at 37°C; • (8) shake out any unreacted second antibody and wash plate six times with PBS-Tween20; • (9) add 100ul/well OPD substrate (or 5ul ABTS solution) for 20 minutes at RT; • (10) add 50ul/well of 4N H₂SO₄ to stop OPD reaction (or 100ul/well of 1% SDS for ABTS reaction); • (11) read plate on an MR 500 Microplate ELISA plate reader. (490nm for OPD or 405 nm for ABTS).

The test system of test [4] is antibodies to HIV-1. Kind of test: ELISA with peptides (III) and (IV), AIDS/ARC patient sera (Procedure 1). Format: binding, human. On the procedure: as §1
Additional AIDS/ARC patient sera were assayed with ELISA assays employing the two highly reactive peptides of formulas (III) and (IV) (Example IV-Procedure 1).

In test [5] the test system is antibodies to HIV-1. Kind of test: Competition ELISA, admixed formula (III) and (IV) peptides as solid phase antigen (Example 4A). Format: binding, human. How it is done:
as §1
Further evidence that more than one epitope is present in formula (III) and (IV) peptides can be deduced from absorbance values obtained from competition studies, the results of an example of which are shown in Table 11. In this study, admixed formula (III) and (IV) peptides were applied to a microtiter plate as the immobilized, solid phase antigen and an ELISA assay (Example 4A) was performed under five different conditions: without competition, or competition with excess formula (III) peptide, formula (IV) peptide, an admixture of both peptides [(III)+(IV)], or with a heterologous peptide. The competition was performed by adding the appropriate peptide(s) to the diluted serum just before adding the serum sample to the microtiter well.

For AWCAFRQVCHTTVPWPNAS [p81], in test [1], the absorbance values entry is on record as “about 0.4”. Besides, the absorbance value in test [2] (Serum No. 3541) is listed as 0.025; in test [2] (Serum No. 3616), 0.047; in test [2] (Serum No. 3743), 0.040; in test [2] (Serum No. 3923), 0.067; in test [2] (Serum No. 3942), 0.051; in test [2] (Serum No. 5160), 0.236. The absorbance value in test [2] (Serum No. 5182) is listed as 0.102; in test [2] (Serum No. 5727) it was 0.563; in test [2] (Serum No. 5740), 0.043; in test [2] (Serum No. 6598) it was 0.205; in test [2] (Serum No. 6599), 0.232; in test [2] (Serum No. 6600) it was 0.306. In addition, the absorbance value in test [2] (Serum No. 6601) came to 0.138; in test [2] (Serum No. 6602), 0.001; in test [2] (Serum No. 6603) it was 0.421; in test [2] (Serum No. 6604), 0.400; in test [2] (Serum No. 6631), 0.285; in test [2] (Serum No. 6650), 0.034. The absorbance value in test [2] (Serum No. 6661) is recorded as 0.160; in test [2] (Serum No. 6665) it was 0.053; in test [2] (Serum No. 6674), 0.258; in test [2] (Serum No. 6683), 0.489; in test [2] (Serum No. 6698), 0.022; in test [2] (Serum No. 6877), 0.008.
Consider CSGKLIC [(I)], for which the “absorbance with competing peptide” value in test [3] (sample 013, unblocked 1.177) stood at 0.038; in test [3] (sample 014, unblocked 0.383), 0.050.
In the case of IWGCSGKLICTTAVPWNAS [peptide (III)], the absorbance values in test [4] (serum sample 0509 (group B)) is given as 0.403; in test [4] (serum sample 0649 (group A)), 1.756; in test [4] (serum sample 0653 (group B)), 0.111; in test [4] (serum sample 0662 (group B)), 0.301; in test [4] (serum sample 3362 (group A)), 0.503; in test [4] (serum sample 3411 (group C)) it was above 2.00. Further, the absorbance values in test [4] (serum sample 3412 (group A)) is listed as above 2.00; in test [4] (serum sample 3413 (group C)), above 2.00; in test [4] (serum sample 3414 (group C)), 1.453; in test [4] (serum sample 3416 (group C)) it was 1.914; in test [4] (serum sample 3456 (group C)) it was 1.670; in test [4] (serum sample 3555 (group B)), 0.428. Besides, the absorbance values in test [4] (serum sample 3575 (group B)) is given as 0.350; in test [4] (serum sample 3666 (group C)), above 2.00; in test [4] (serum sample 3693 (group A)), 0.559; in test [4] (serum sample 3722 (group A)), 0.620; in test [4] (serum sample 3744 (group B)), 0.311; in test [4] (serum sample 3790 (group B)), 0.224. Further, the “absorbance with competing peptide” value in test [5] (sample 3412, unblocked 1.450) is 0.113; in test [5] (sample 3413, unblocked >2.00), 0.381; in test [5] (sample 3416, unblocked >2.00) it was 1.811; in test [5] (sample 3544, unblocked 1.810), 0.876; in test [5] (sample 3575, unblocked 1.267), 0.982; in test [5] (sample 3693, unblocked 0.340), 0.103. Also, the “absorbance with competing peptide” value worked out at 1.320 in test [5] (sample 3790, unblocked 1.558); 0.046 in test [3] (sample 013, unblocked 1.177); 0.067 in test [3] (sample 014, unblocked 0.383). Also, in test [3] (result in words), the “competition with formula (I) peptide on the plate” value was “competed very effectively”.
